Results reported in PMC7562955 (Nature Communications, 2020).

Target: T1, TLR7 (Homo sapiens, UniProt Q9NYK1)
T1 sequence (Q9NYK1 27-1049): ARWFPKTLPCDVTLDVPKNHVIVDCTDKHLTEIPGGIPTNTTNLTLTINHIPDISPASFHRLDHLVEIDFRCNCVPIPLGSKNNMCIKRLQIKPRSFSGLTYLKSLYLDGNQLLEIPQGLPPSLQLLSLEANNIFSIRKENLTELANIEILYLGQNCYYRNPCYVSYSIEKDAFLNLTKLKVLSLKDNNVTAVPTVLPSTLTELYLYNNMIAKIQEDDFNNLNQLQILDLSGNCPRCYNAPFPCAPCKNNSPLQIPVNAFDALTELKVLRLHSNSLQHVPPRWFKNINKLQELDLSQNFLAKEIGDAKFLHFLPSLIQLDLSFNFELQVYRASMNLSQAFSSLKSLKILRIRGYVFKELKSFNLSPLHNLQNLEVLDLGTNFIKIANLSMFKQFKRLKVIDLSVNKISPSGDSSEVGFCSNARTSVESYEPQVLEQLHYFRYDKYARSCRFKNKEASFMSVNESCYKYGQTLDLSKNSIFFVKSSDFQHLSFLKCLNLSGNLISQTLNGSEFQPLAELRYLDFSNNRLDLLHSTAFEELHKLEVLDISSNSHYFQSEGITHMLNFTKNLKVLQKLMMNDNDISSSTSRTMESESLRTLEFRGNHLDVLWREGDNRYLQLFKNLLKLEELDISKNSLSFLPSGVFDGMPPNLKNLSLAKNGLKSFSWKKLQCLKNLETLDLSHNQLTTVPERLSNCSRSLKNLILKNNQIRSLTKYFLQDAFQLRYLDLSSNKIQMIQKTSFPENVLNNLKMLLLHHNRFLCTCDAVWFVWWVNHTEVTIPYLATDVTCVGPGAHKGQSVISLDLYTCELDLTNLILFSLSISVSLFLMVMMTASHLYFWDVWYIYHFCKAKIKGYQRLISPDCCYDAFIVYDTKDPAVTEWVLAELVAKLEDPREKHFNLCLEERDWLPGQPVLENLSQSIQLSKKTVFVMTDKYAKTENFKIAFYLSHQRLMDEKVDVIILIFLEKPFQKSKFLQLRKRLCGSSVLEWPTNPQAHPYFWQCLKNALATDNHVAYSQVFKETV
Test: Dose-response relationship between antagonist and R848, human TLR7 reporter gene assay
Format: cell-based
Design: host or cells: HEK293 (TLR7/NF-κB/SEAPorter)
Method: Compounds were dissolved in dimethyl sulfoxide. Human TLR7 reporter cell line (Novus Biological) were seeded in 96-well microtiter plate (AGC techno glass) at 5 × 10^4 cells/well in DMEM (GIBCO) with 10% fetal bovine serum (GIBCO), and 10 μg ml^−1 Blastcidin S HCl (GIBCO) and incubated at 37 °C in 5% CO2. The plates were incubated over-night and then addition with various concentrations of compound. After 30 min, R848 (human TLR7/8 ligand) that was diluted with the medium was added, wherein final concentration was adjusted to 0.01, 0.03, 0.1, 0.3, 1, 3, 10, 30, 100, 300 and 1000 μM. The plates were then incubated an additional 20 ± 1 h at 37 °C in 5% CO2, and then the SEAP activity was measured as activation of human TLR7. The SEAP activity was evaluated as follows: pNPP (Invitrogen) was added to the incubated sample (50 μl/well); after 15 min, 4 mol l^−1 sodium hydroxide solution (nacalai tesque) was added thereto (50 μl/well) to quench the reaction; and the absorbance of each sample was measured at 405 nm with microplate reader SpectraMax M4 (Molecular Devices).

Structure (SMILES): CCOc1nc(N)c2nc(-c3cncc(F)c3)n(Cc3ccc(CN4C[C@@H]5C[C@H]4CN5C)cc3)c2n1 [Cpd-6]
- mode of action against R848: acted as antagonists
- TLR7 reporter signal (Cpd-6 0.001 µM, log10[R848 (µM)] 0): 12.4492
- TLR7 reporter signal (Cpd-6 0.001 µM, log10[R848 (µM)] 0.477121): 42.5203
- TLR7 reporter signal (Cpd-6 0.001 µM, log10[R848 (µM)] 1): 87.7267
- TLR7 reporter signal (Cpd-6 0.001 µM, log10[R848 (µM)] 1.47712): 99.7073
- TLR7 reporter signal (Cpd-6 0.001 µM, log10[R848 (µM)] 2): 100.849
- TLR7 reporter signal (Cpd-6 0.001 µM, log10[R848 (µM)] 2.47712): 102.716
- TLR7 reporter signal (Cpd-6 0.001 µM, log10[R848 (µM)] 3): 99.4752
- TLR7 reporter signal (Cpd-6 0.001 µM, log10[R848 (µM)] -0.522879): 1.192
- TLR7 reporter signal (Cpd-6 0.001 µM, log10[R848 (µM)] -1): 0.7791
- TLR7 reporter signal (Cpd-6 0.001 µM, log10[R848 (µM)] -1.52288): 0.2957
- TLR7 reporter signal (Cpd-6 0.001 µM, log10[R848 (µM)] -2): -0.1404
- TLR7 reporter signal (Cpd-6 0.003 µM, log10[R848 (µM)] 0): 9.923
- TLR7 reporter signal (Cpd-6 0.003 µM, log10[R848 (µM)] 0.477121): 37.8265
- TLR7 reporter signal (Cpd-6 0.003 µM, log10[R848 (µM)] 1): 84.946
- TLR7 reporter signal (Cpd-6 0.003 µM, log10[R848 (µM)] 1.47712): 98.5645
- TLR7 reporter signal (Cpd-6 0.003 µM, log10[R848 (µM)] 2): 102.64
- TLR7 reporter signal (Cpd-6 0.003 µM, log10[R848 (µM)] 2.47712): 101.614
- TLR7 reporter signal (Cpd-6 0.003 µM, log10[R848 (µM)] 3): 100.614
- TLR7 reporter signal (Cpd-6 0.003 µM, log10[R848 (µM)] -0.522879): 0.6697
- TLR7 reporter signal (Cpd-6 0.003 µM, log10[R848 (µM)] -1): 0.7155
- TLR7 reporter signal (Cpd-6 0.003 µM, log10[R848 (µM)] -1.52288): 0.0547
- TLR7 reporter signal (Cpd-6 0.003 µM, log10[R848 (µM)] -2): -0.2513
- TLR7 reporter signal (Cpd-6 0.01 µM, log10[R848 (µM)] -2): -0.4139
- TLR7 reporter signal (Cpd-6 0.1 μM, log10[R848 (µM)] 0): 1.818
- TLR7 reporter signal (Cpd-6 0.1 μM, log10[R848 (µM)] 0.477121): 11.9813
- TLR7 reporter signal (Cpd-6 0.1 μM, log10[R848 (µM)] 1): 58.4894
- TLR7 reporter signal (Cpd-6 0.1 μM, log10[R848 (µM)] 1.47712): 91.4766
- TLR7 reporter signal (Cpd-6 0.1 μM, log10[R848 (µM)] 2): 100.668
- TLR7 reporter signal (Cpd-6 0.1 μM, log10[R848 (µM)] 2.47712): 102.716
- TLR7 reporter signal (Cpd-6 0.1 μM, log10[R848 (µM)] 3): 98.9371
- TLR7 reporter signal (Cpd-6 0.1 μM, log10[R848 (µM)] -0.522879): 0.03031
- TLR7 reporter signal (Cpd-6 0.1 μM, log10[R848 (µM)] -1): 0.4916
- TLR7 reporter signal (Cpd-6 0.1 μM, log10[R848 (µM)] -1.52288): 0.6438
- TLR7 reporter signal (Cpd-6 0.1 μM, log10[R848 (µM)] -2): -0.1471
- TLR7 reporter signal (Cpd-6 0.3 μM, log10[R848 (µM)] 0): 0.5455
- TLR7 reporter signal (Cpd-6 0.3 μM, log10[R848 (µM)] 0.477121): 4.006
- TLR7 reporter signal (Cpd-6 0.3 μM, log10[R848 (µM)] 1): 31.2508
- TLR7 reporter signal (Cpd-6 0.3 μM, log10[R848 (µM)] 1.47712): 73.4318
- TLR7 reporter signal (Cpd-6 0.3 μM, log10[R848 (µM)] 2): 95.1399
- TLR7 reporter signal (Cpd-6 0.3 μM, log10[R848 (µM)] 2.47712): 101.486
- TLR7 reporter signal (Cpd-6 0.3 μM, log10[R848 (µM)] 3): 99.1034
- TLR7 reporter signal (Cpd-6 0.3 μM, log10[R848 (µM)] -0.522879): -0.01626
- TLR7 reporter signal (Cpd-6 0.3 μM, log10[R848 (µM)] -1): 0.3371
- TLR7 reporter signal (Cpd-6 0.3 μM, log10[R848 (µM)] -1.52288): 0.2617
- TLR7 reporter signal (Cpd-6 0.3 μM, log10[R848 (µM)] -2): -0.3984
- TLR7 reporter signal (Cpd-6 1 μM, log10[R848 (µM)] 0): 0.1648
- TLR7 reporter signal (Cpd-6 1 μM, log10[R848 (µM)] 0.477121): 0.6756
- TLR7 reporter signal (Cpd-6 1 μM, log10[R848 (µM)] 1): 11.4786
- TLR7 reporter signal (Cpd-6 1 μM, log10[R848 (µM)] 1.47712): 45.6507
- TLR7 reporter signal (Cpd-6 1 μM, log10[R848 (µM)] 2): 84.5912
- TLR7 reporter signal (Cpd-6 1 μM, log10[R848 (µM)] 2.47712): 96.6131
- TLR7 reporter signal (Cpd-6 1 μM, log10[R848 (µM)] 3): 99.4242
- TLR7 reporter signal (Cpd-6 1 μM, log10[R848 (µM)] -0.522879): -0.03548
- TLR7 reporter signal (Cpd-6 1 μM, log10[R848 (µM)] -1): 0.7835
- TLR7 reporter signal (Cpd-6 1 μM, log10[R848 (µM)] -1.52288): 0.4073
- TLR7 reporter signal (Cpd-6 1 μM, log10[R848 (µM)] -2): -0.4287
- TLR7 reporter signal (Cpd-6 3 μM, log10[R848 (µM)] 0): -0.1671
- TLR7 reporter signal (Cpd-6 3 μM, log10[R848 (µM)] 0.477121): -0.3319
- TLR7 reporter signal (Cpd-6 3 μM, log10[R848 (µM)] 1): 1.145
- TLR7 reporter signal (Cpd-6 3 μM, log10[R848 (µM)] 1.47712): 10.9886
- TLR7 reporter signal (Cpd-6 3 μM, log10[R848 (µM)] 2): 45.7638
- TLR7 reporter signal (Cpd-6 3 μM, log10[R848 (µM)] 2.47712): 76.6561
- TLR7 reporter signal (Cpd-6 3 μM, log10[R848 (µM)] 3): 93.6623
- TLR7 reporter signal (Cpd-6 3 μM, log10[R848 (µM)] -0.522879): -0.0924
- TLR7 reporter signal (Cpd-6 3 μM, log10[R848 (µM)] -1): 0.3881
- TLR7 reporter signal (Cpd-6 3 μM, log10[R848 (µM)] -1.52288): 0.1811
- TLR7 reporter signal (Cpd-6 3 μM, log10[R848 (µM)] -2): -0.3984
- TLR7 reporter signal (Cpd-6 10 μM, log10[R848 (µM)] 0): -0.3585
- TLR7 reporter signal (Cpd-6 10 μM, log10[R848 (µM)] 0.477121): 0.00887
- TLR7 reporter signal (Cpd-6 10 μM, log10[R848 (µM)] 1): -0.3311
- TLR7 reporter signal (Cpd-6 10 μM, log10[R848 (µM)] 1.47712): 1.483
- TLR7 reporter signal (Cpd-6 10 μM, log10[R848 (µM)] 2): 7.633
- TLR7 reporter signal (Cpd-6 10 μM, log10[R848 (µM)] 2.47712): 30.5109
- TLR7 reporter signal (Cpd-6 10 μM, log10[R848 (µM)] 3): 70.7738
- TLR7 reporter signal (Cpd-6 10 μM, log10[R848 (µM)] -0.522879): 0.08501
- TLR7 reporter signal (Cpd-6 10 μM, log10[R848 (µM)] -1): 0.6054
- TLR7 reporter signal (Cpd-6 10 μM, log10[R848 (µM)] -1.52288): 0.5159
- TLR7 reporter signal (Cpd-6 10 μM, log10[R848 (µM)] -2): -0.6941
- TLR7 reporter signal (Cpd-6 30 μM, log10[R848 (µM)] 0): -0.8205
- TLR7 reporter signal (Cpd-6 30 μM, log10[R848 (µM)] 0.477121): -0.1671
- TLR7 reporter signal (Cpd-6 30 μM, log10[R848 (µM)] 1): -0.3932
- TLR7 reporter signal (Cpd-6 30 μM, log10[R848 (µM)] 1.47712): 0.7037
- TLR7 reporter signal (Cpd-6 30 μM, log10[R848 (µM)] 2): 0.5559
- TLR7 reporter signal (Cpd-6 30 μM, log10[R848 (µM)] 2.47712): 4.178
- TLR7 reporter signal (Cpd-6 30 μM, log10[R848 (µM)] 3): 28.3207
- TLR7 reporter signal (Cpd-6 30 μM, log10[R848 (µM)] -0.522879): -0.2084
- TLR7 reporter signal (Cpd-6 30 μM, log10[R848 (µM)] -1): 0.05618
- TLR7 reporter signal (Cpd-6 30 μM, log10[R848 (µM)] -1.52288): 0.1597
- TLR7 reporter signal (Cpd-6 30 μM, log10[R848 (µM)] -2): -0.9107
- TLR7 reporter signal (Cpd-6 100 μM, log10[R848 (µM)] 0): -0.4154
- TLR7 reporter signal (Cpd-6 100 μM, log10[R848 (µM)] 0.477121): -0.3459
- TLR7 reporter signal (Cpd-6 100 μM, log10[R848 (µM)] 1): -0.6712
- TLR7 reporter signal (Cpd-6 100 μM, log10[R848 (µM)] 1.47712): 0.8663
- TLR7 reporter signal (Cpd-6 100 μM, log10[R848 (µM)] 2): 0.5381
- TLR7 reporter signal (Cpd-6 100 μM, log10[R848 (µM)] 2.47712): 4.485
- TLR7 reporter signal (Cpd-6 100 μM, log10[R848 (µM)] 3): 25.5163
- TLR7 reporter signal (Cpd-6 100 μM, log10[R848 (µM)] -0.522879): -0.01478
- TLR7 reporter signal (Cpd-6 100 μM, log10[R848 (µM)] -1): 0.612
- TLR7 reporter signal (Cpd-6 100 μM, log10[R848 (µM)] -1.52288): 1.063
- TLR7 reporter signal (Cpd-6 100 μM, log10[R848 (µM)] -2): -0.5529
